Experimental data reported in patent publication US11673866B2, “Estrogen receptor beta ligands for the prevention and treatment of multiple sclerosis (MS) and other demyelinating, inflammatory and neurodegenerative diseases” (The Board of Trustees of the University of Illinois, priority 2018, dated 2023).
Entries after “also recorded” stand apart in the source; their conditions may differ.

Tests used:
[1] = tested on: MOG35-55-stimulated splenocytes; test: Cytokine and chemokine production by splenocytes from EAE mice (Luminex); type: in vivo, mouse; set-up: key to Peripheral Inflammatory Cytokines: IFNγ / Peripheral Inflammatory Cytokines: IL-lβ / Peripheral Inflammatory Cytokines: IL-2 / Peripheral Inflammatory Cytokines: IL-6 / Peripheral Inflammatory Cytokines: IL-17 / Peripheral Inflammatory Cytokines: TNFα / Peripheral Th2 & Anti-inflammatory Cytokines: IL-4 / Peripheral Th2 & Anti-inflammatory Cytokines: IL-5 / Peripheral Th2 & Anti-inflammatory Cytokines: IL-10 / Peripheral Th2 & Anti-inflammatory Cytokines: IL-13 / Peripheral Chemokines: CXCL1 / Peripheral Chemokines: CXCL10: ‘+’ indicate marker was significantly (p ≤ 0.05) increased in treatment group relative to vehicle; ‘−’ indicates marker was significantly (p ≤ 0.05) decreased in treatment group relative to vehicle; ○: ‘o’ indicate marker did not change relative to vehicle; conditions: for Peripheral Chemokines: CXCL1 / Peripheral Chemokines: CXCL10 / Peripheral Inflammatory Cytokines: IFNγ / Peripheral Inflammatory Cytokines: IL-2 / Peripheral Inflammatory Cytokines: IL-6 / Peripheral Inflammatory Cytokines: IL-17 / Peripheral Inflammatory Cytokines: IL-lβ / Peripheral Inflammatory Cytokines: TNFα / Peripheral Th2 & Anti-inflammatory Cytokines: IL-4 / Peripheral Th2 & Anti-inflammatory Cytokines: IL-5 / Peripheral Th2 & Anti-inflammatory Cytokines: IL-10 / Peripheral Th2 & Anti-inflammatory Cytokines: IL-13: vs vehicle
Method: Splenocyte Isolation & Cytokine Analysis: On day 20-21 after induction of EAE, spleens were harvested prior to transcardial perfusion. Spleens were dissected from anesthetized mice and mechanically dissociated into a single cell suspension in cold RPMI 1640 supplemented with pyruvate, L-glutamine, and 10% fetal bovine serum (henceforth referred to as RPMI). Red blood cells were lysed by incubation with ACK buffer (VWR), washed, counted, and resuspended in RPMI for cytokine analysis. Splenocytes were then stimulated with 25 μg/ml MOG35-55 and supernatants were collected 48 hours later (Khalaj et al., 2013; Moore et al., 2013). Levels of the anti-inflammatory cytokines: IL-10, IL-13, IL-4 and IL-5; pro-inflammatory cytokines IFNγ, IL-17, IL-1β TNFα, IL-6 and IL-2; and chemokines: CXCL1, CXCL10 were determined by Cytokine Mouse Magnetic Panel for Luminex (Thermo Fisher Scientific; Waltham, Mass.) and run on the xMAP MAGPIX 100™ instrument (Luminex Corporation, Austin, Tx) according to manufacturer's instructions.
During MS and EAE, peripherally activated leukocytes secrete inflammatory cytokines and chemokines as they migrate into the CNS, where they contribute to demyelination and axon damage (Fletcher et al., 2010). To characterize the effects of IndCl analogues on the peripheral immune response, splenocytes were isolated from mice 21 days post-immunization and stimulated ex vivo with MOG35-55 peptide for cytokine and chemokine analysis using a magnetic bead-based 20-plex cytokine/chemokine detection assay. Cytokines related to inflammation, CD4+ T cell polarization, immune regulation, and chemokines associated with OL apoptosis and myelination that were measured in collected supernatants are presented below.

[2] = tested on: myelin basic protein (MBP) in thoracic spinal cord ventral column; test: MBP immunoreactivity in thoracic ventral column white matter of EAE mice; type: in vivo, mouse; conditions: therapeutic treatment (postEAE), vs vehicle
Method: Histological Preparation of Tissues: Mice were deeply anesthetized by isoflurane (Piramal Healthcare) inhalation and perfused transcardially with phosphate buffered saline (PBS), followed by 10% formalin (Thermo Fisher Scientific) to fix tissues. Brains and spinal cords were dissected and post-fixed in 10% formalin (Thermo Fisher Scientific) for 24 hours, then cryoprotected in 30% sucrose (EMD Millipore, Darmstadt, Germany) for 48 hours and embedded in gelatin for sectioning. Embedded brains and spinal cords were then cut into 40-μm coronal sections using an HM525 NX cryostat (Thermo Fisher Scientific). Sections were collected serially and stored in PBS with 1% sodium azide at 4° C. until staining by immunohistochemistry, following a previously described protocol (Crawford et al., 2010; Moore et al., 2014).
Immunohistochemistry: Before histological staining, 40-μm free floating sections were thoroughly washed with PBS to remove residual sodium azide (Crawford et al., 2010). Sections were permeabilized with 0.3% Triton X-100 in ix PBS and 15% normal goat serum (NGS). […]
Confocal Microscopy: Thoracic spinal cord dorsal and ventral column sections, as well as CC were imaged using an Olympus BX61 confocal microscope (Olympus America Inc., Center Valley, Pa.) using a 10× and 40× objective. […] Immunostaining was quantified using unbiased stereology (Crawford et al., 2010). […] MBP^+, GFAP^+, CD45^+, Iba1^+, CC1^+, and CXCL1^+, staining intensity was measured as percent area of positive immunoreactivity within the region of interest and intensity of signal determined by ImageJ.
Treatment with IndCl or other ERβ ligands improves myelination within CNS white tracts of mice with EAE (Khalaj et al., 2013; Kumar et al., 2013; Moore et al., 2014). To establish the pro-myelinating effects of the IndCl analogues tested, thoracic ventral column white matter was assessed for myelin basic protein (MBP) immunoreactivity.

[3] = Post (therapeutic, postEAE) treatment of EAE mice
[4] = Pre (prophylactic, preEAE) E2 treatment of EAE mice
[5] = prophylactic E2 (preEAE), day 21, vs vehicle
[6] = therapeutic treatment (postEAE), day 21, vs vehicle

| Structure (SMILES) | Peripheral Chemokines: CXCL1 [1, 3] | Peripheral Chemokines: CXCL10 [1, 3] | Peripheral Inflammatory Cytokines: IFNγ [1, 3] | Peripheral Inflammatory Cytokines: IL-2 [1, 3] | Peripheral Inflammatory Cytokines: IL-6 [1, 3] | Peripheral Inflammatory Cytokines: IL-17 [1, 3] | Peripheral Inflammatory Cytokines: IL-lβ [1, 3] | Peripheral Inflammatory Cytokines: TNFα [1, 3] | Peripheral Th2 & Anti-inflammatory Cytokines: IL-4 [1, 3] | Peripheral Th2 & Anti-inflammatory Cytokines: IL-5 [1, 3] | Peripheral Th2 & Anti-inflammatory Cytokines: IL-10 [1, 3] | Peripheral Th2 & Anti-inflammatory Cytokines: IL-13 [1, 3] | MBP staining intensity, thoracic spinal cord ventral column [2] | IFNγ production by splenocytes [1, 6] | IL-6 production by splenocytes [1, 6] | IL-13 production by splenocytes [1, 6] | further results |
| --- | --- | --- | --- | --- | --- | --- | --- | --- | --- | --- | --- | --- | --- | --- | --- | --- | --- |
| C[C@]12CC[C@@H]3c4ccc(O)cc4CC[C@H]3[C@@H]1CC[C@@H]2O [E2, 170 estradiol] | + | − | − | ○ | − | − | ○ | ○ | ○ | ○ | ○ | ○ |  |  |  |  | Peripheral Chemokines: CXCL1 [1, 4]: +; Peripheral Chemokines: CXCL10 [1, 4]: −; Peripheral Inflammatory Cytokines: IFNγ [1, 4]: −; Peripheral Inflammatory Cytokines: IL-2 [1, 4]: −; Peripheral Inflammatory Cytokines: IL-6 [1, 4]: −; Peripheral Inflammatory Cytokines: IL-17 [1, 4]: −; Peripheral Inflammatory Cytokines: IL-lβ [1, 4]: ○; Peripheral Inflammatory Cytokines: TNFα [1, 4]: ○; Peripheral Th2 & Anti-inflammatory Cytokines: IL-4 [1, 4]: ○; Peripheral Th2 & Anti-inflammatory Cytokines: IL-5 [1, 4]: ○; Peripheral Th2 & Anti-inflammatory Cytokines: IL-10 [1, 4]: ○; Peripheral Th2 & Anti-inflammatory Cytokines: IL-13 [1, 4]: ○; IL-1β production by splenocytes [1, 5]: no effect; TNFα production by splenocytes [1, 5]: no effect |
| Oc1ccc(-n2nc3ccc(O)cc3c2Cl)cc1 [IndCl, chloroindazole] | + | − | − | ○ | ○ | ○ | + | ○ | ○ | ○ | ○ | ○ | maintained at near normal levels; also recorded: increased | significantly decreased |  |  | CXCL1 production by splenocytes [1, 6]: increased; CXCL10 production by splenocytes [1, 6]: decreased; IL-1β production by splenocytes [1, 6]: increased; Th2 (IL-4, IL-5, IL-13) and IL-10 cytokine production by splenocytes [1, 6]: no effect |
| Oc1ccc(-n2nc3ccc(O)cc3c2Cl)c(Cl)c1 [IndCl-o-Cl, 3-chloro-2-(2-chloro-4-hydroxyphenyl)-2H-indazol-5-ol] | + | − | − | ○ | − | − | ○ | ○ | ○ | ○ | ○ | − | maintained at near normal levels; also recorded: increased | significantly decreased | significantly decreased | attenuated | IFNγ production by splenocytes ([1]; therapeutic treatment (postEAE), day 21, vs vehicle, listed as o-Cl): decreased |
| Cc1cc(O)ccc1-n1nc2ccc(O)cc2c1Cl [IndCl-o-Me, 3-chloro-2-(4-hydroxy-2-methylphenyl)-2H-indazol-5-ol] | + | − | − | ○ | − | − | ○ | ○ | ○ | ○ | ○ | − | maintained at near normal levels; also recorded: increased | significantly decreasing | significantly decreasing | attenuated | IL-17 production by splenocytes [1, 6]: significantly decreasing; also recorded: reducing; IFNγ production by splenocytes ([1]; therapeutic treatment (postEAE), day 21, vs vehicle, listed as o-Me): decreased |
